The results in this text go back to patent publication US9023398B2, “Method for improving the aqueous solubility of poorly-soluble substances” (Kabushiki Kaisha Sangi, priority 2009, dated 2015).

Data set [1] in a line: Dissolution test of poorly-soluble substances using 2nd fluid for disintegration test (pH 6.8) of the Japanese Pharmacopoeia. Format: physicochemical. The note with it: 2nd fluid for disintegration test.
Experimental: From initiation of the test, the mixed solution was stirred with a stirrer having a length of 15 mm. The rotation number of the stirrer was 120 rpm, and all of the tests were conducted in a thermostat at 37±0.5° C. Two types of test solutions, namely, distilled water and 2nd fluid for disintegration test (pH 6.8) of the Japanese Pharmacopoeia were used. As such 2nd fluid for disintegration test of the Japanese Pharmacopoeia, a solution prepared by diluting the 10-fold concentration solution of Kanto Kagaku Co., Ltd. with distilled water was used.
A comparative test was carried out in the same manner as that described above with the exception that a poorly-soluble substance or the like was used in an amount equal to that of a substance with improved aqueous solubility, instead of the substance with improved aqueous solubility.
1 mL of the solution was sampled in an Eppendorf centrifuge tube, 1, 3, 10, 30, 60, 180 and 360 minutes after initiation of the test. The thus sampled solution was centrifuged at 12,000 rpm for 5 minutes. […] In the case of the comparative test, the poorly-soluble substance or the like, which had not been dissolved in the solution, was removed. An aliquot of this supernatant was immediately frozen. The frozen sample was freeze-dried, and it was then used as a sample in the measurement of the amount of the substance with improved aqueous solubility, which had been dissolved in the test solution. The dissolved poorly-soluble substance was measured mainly using a dual wavelength absorption photometer.
The nature of data set [2]: Dissolution test of poorly-soluble substances using distilled water. The format is physicochemical. The note with it: water.
[3] abbreviates: Gliclazide, elution time 30 min.
Where [4] appears, read: Gliclazide, elution time 120 min.
Setting [5] is: Gliclazide, elution time 360 min.
[6] abbreviates: Metoclopramide, elution time 3 min.
Where [7] appears, read: Metoclopramide, elution time 30 min.
[8] abbreviates: Metoclopramide, elution time 360 min.
Where [9] appears, read: Spironolactone, elution time 3 min.
Setting [10] is: Spironolactone, elution time 10 min.
The mark [11] stands for this setting: Spironolactone, elution time 30 min.
Setting [12] is: Spironolactone, elution time 120 min.
[13] abbreviates: Spironolactone, elution time 360 min.
The mark [14] stands for this setting: Probenecid, elution time 10 min.
Where [15] appears, read: Probenecid, elution time 30 min.
[16] abbreviates: Probenecid, elution time 120 min.
Where [17] appears, read: Probenecid, elution time 360 min.
The mark [18] stands for this setting: Allopurinol, elution time 3 min.
Setting [19] is: Allopurinol, elution time 10 min.
[20] abbreviates: Allopurinol, elution time 30 min.
Setting [21] is: Allopurinol, elution time 120 min.
Setting [22] is: Allopurinol, elution time 360 min.
Where [23] appears, read: Prednisolone, elution time 10 min.
The mark [24] stands for this setting: Prednisolone, elution time 30 min.
[25] abbreviates: Prednisolone, elution time 120 min.
The mark [26] stands for this setting: Prednisolone, elution time 360 min.

Each structure is given as a SMILES string.

Turning to `CCS(=O)(=O)CCn1c([N+](=O)[O-])cnc1C` [compound 25, Tinidazole], the Dissolved amount in data set [1] (elution time 3 min) came out at 4613.3 µg/mL; in data set [1] (elution time 10 min), 5425.9 µg/mL; in data set [1] (elution time 30 min) it was 5825.0 µg/mL; in data set [1] (elution time 120 min), 7003.0 µg/mL; in data set [1] (elution time 360 min), 6133.3 µg/mL; in data set [2] (elution time 3 min) it was 2973.2 µg/mL. For the same compound, the Dissolved amount was 3880.0 µg/mL in data set [2] (elution time 10 min), 4558.1 µg/mL in data set [2] (elution time 30 min), 6034.2 µg/mL in data set [2] (elution time 120 min) and 6207.6 µg/mL in data set [2] (elution time 360 min).

On to `CCn1cc(C(=O)O)c(=O)c2cc(F)c(N3CCNCC3)cc21` [compound 27, Norfloxacin], for which the Dissolved amount in data set [1] (elution time 3 min) stood at 688.7 µg/mL; in data set [1] (elution time 10 min) it was 767.1 µg/mL; in data set [1] (elution time 30 min), 744.1 µg/mL; in data set [1] (elution time 120 min), 721.6 µg/mL; in data set [1] (elution time 360 min) it was 694.7 µg/mL; in data set [2] (elution time 3 min) it was 455.9 µg/mL. The Dissolved amount is 523.1 µg/mL in data set [2] (elution time 10 min), 492.3 µg/mL in data set [2] (elution time 30 min), 470.7 µg/mL in data set [2] (elution time 120 min) and 395.5 µg/mL in data set [2] (elution time 360 min).

Take `CC[C@H]1OC(=O)[C@H](C)[C@@H](O[C@H]2C[C@@](C)(OC)[C@@H](O)[C@H](C)O2)[C@H](C)[C@@H](O[C@@H]2O[C@H](C)C[C@H](N(C)C)[C@H]2O)[C@](C)(O)C[C@@H](C)C(=O)[C@H](C)[C@@H](O)[C@]1(C)O` [compound 28, Erythromycin]: the Dissolved amount in data set [1] (elution time 10 min) was determined as 4984.2 µg/mL; in data set [1] (elution time 30 min), 5103.6 µg/mL; in data set [1] (elution time 120 min) it was 5904.1 µg/mL; in data set [1] (elution time 360 min), 6044.7 µg/mL; in data set [2] (elution time 3 min), 635.0 µg/mL; in data set [2] (elution time 10 min), 861.6 µg/mL. The Dissolved amount came to 944.7 µg/mL in data set [2] (elution time 30 min), 927.7 µg/mL in data set [2] (elution time 120 min) and 846.1 µg/mL in data set [2] (elution time 360 min).

For the compound `O=[N+]([O-])O[C@H]1CO[C@H]2[C@@H]1OC[C@H]2O[N+](=O)[O-]` [compound 30, Isosorbide Dinitrate], the Dissolved amount stood at 7154.4 µg/mL in data set [1] (elution time 10 min); 7134.1 µg/mL in data set [1] (elution time 30 min); 7148.8 µg/mL in data set [1] (elution time 360 min); 3490.4 µg/mL in data set [2] (elution time 30 min); 3516.8 µg/mL in data set [2] (elution time 120 min).

For the compound `OCCN(CCO)c1nc(N2CCCCC2)c2nc(N(CCO)CCO)nc(N3CCCCC3)c2n1` [compound 31, Dipyridamole], the Dissolved amount was 6.5 µg/mL in data set [1] (Dipyridamole, elution time 3 min); 6.5 µg/mL in data set [1] (Dipyridamole, elution time 10 min); 8.3 µg/mL in data set [1] (Dipyridamole, elution time 30 min); 8.5 µg/mL in data set [1] (Dipyridamole, elution time 120 min); 9.2 µg/mL in data set [1] (Dipyridamole, elution time 360 min); 7.8 µg/mL in data set [2] (elution time 3 min). The Dissolved amount in data set [2] (elution time 10 min) came out at 7.9 µg/mL; in data set [2] (elution time 30 min), 8.0 µg/mL; in data set [2] (elution time 120 min), 8.5 µg/mL; in data set [2] (elution time 360 min), 8.2 µg/mL.

As to `Cc1ccc(S(=O)(=O)NC(=O)NN2CC3CCCC3C2)cc1` (stereo not shown) [compound 32, Gliclazide], the Dissolved amount came to 80.1 µg/mL in data set [1] (Gliclazide, elution time 3 min); 296.1 µg/mL in data set [1] (setting [3]); 420.2 µg/mL in data set [1] (setting [4]); 429.4 µg/mL in data set [1] (setting [5]); 11.1 µg/mL in data set [2] (Gliclazide, elution time 3 min); 26.3 µg/mL in data set [2] (Gliclazide, elution time 10 min). The values for the Dissolved amount in data set [2] (setting [3]), in data set [2] (setting [4]) and in data set [2] (setting [5]) were 35.4 µg/mL, 38.8 µg/mL and 39.3 µg/mL, respectively.

For the compound `CCN(CC)CCNC(=O)c1cc(Cl)c(N)cc1OC` [compound 33, Metoclopramide], the Dissolved amount in data set [1] (setting [6]) amounted to 12420.8 µg/mL; in data set [1] (setting [7]), 13285.5 µg/mL; in data set [1] (setting [8]) it was 13564.1 µg/mL; in data set [2] (setting [6]), 6159.5 µg/mL; in data set [2] (Metoclopramide, elution time 10 min), 5382.3 µg/mL; in data set [2] (setting [7]), 5437.6 µg/mL. For the same compound, the Dissolved amount in data set [2] (Metoclopramide, elution time 120 min) stood at 5478.0 µg/mL; in data set [2] (setting [8]), 5654.9 µg/mL.

Turning to `CC(=O)S[C@@H]1CC2=CC(=O)CC[C@]2(C)[C@H]2CC[C@@]3(C)[C@@H](CC[C@@]34CCC(=O)O4)[C@H]12` [compound 34, Spironolactone], the Dissolved amount in data set [1] (setting [9]) was 71.0 µg/mL; in data set [1] (setting [10]), 85.6 µg/mL; in data set [1] (setting [11]) it was 89.3 µg/mL; in data set [1] (setting [12]), 92.0 µg/mL; in data set [1] (setting [13]) it was 93.7 µg/mL; in data set [2] (setting [9]), 29.6 µg/mL. Also, the Dissolved amount in data set [2] (setting [10]) was 31.9 µg/mL; in data set [2] (setting [11]) it was 33.7 µg/mL; in data set [2] (setting [12]), 39.7 µg/mL; in data set [2] (setting [13]), 35.2 µg/mL.

Turning to `CCCN(CCC)S(=O)(=O)c1ccc(C(=O)O)cc1` [compound 38, Probenecid], the Dissolved amount in data set [1] (Probenecid, elution time 3 min) was 386.2 µg/mL; in data set [1] (setting [14]), 1107.2 µg/mL; in data set [1] (setting [15]), 1315.0 µg/mL; in data set [1] (setting [16]), 2619.5 µg/mL; in data set [1] (setting [17]), 3715.9 µg/mL; in data set [2] (Probenecid, elution time 3 min), 10.7 µg/mL. In addition, the Dissolved amount turned out to be 22.7 µg/mL in data set [2] (setting [14]), 33.4 µg/mL in data set [2] (setting [15]), 39.8 µg/mL in data set [2] (setting [16]) and 37.5 µg/mL in data set [2] (setting [17]).

As for `Oc1ncnc2[nH]ncc12` [compound 39, Allopurinol], the Dissolved amount amounted to 565.4 µg/mL in data set [1] (setting [18]); 672.6 µg/mL in data set [1] (setting [19]); 725.7 µg/mL in data set [1] (setting [20]); 722.8 µg/mL in data set [1] (setting [21]); 696.1 µg/mL in data set [1] (setting [22]); 578.2 µg/mL in data set [2] (setting [18]). The Dissolved amount was found to be 679.4 µg/mL in data set [2] (setting [19]), 773.9 µg/mL in data set [2] (setting [20]), 741.5 µg/mL in data set [2] (setting [21]) and 712.5 µg/mL in data set [2] (setting [22]).

Turning to `C[C@]12C=CC(=O)C=C1CC[C@@H]1[C@@H]2[C@@H](O)C[C@@]2(C)[C@H]1CC[C@]2(O)C(=O)CO` [compound 41, Prednisolone], the Dissolved amount in data set [1] (Prednisolone, elution time 3 min) was 369.1 µg/mL; in data set [1] (setting [23]), 382.4 µg/mL; in data set [1] (setting [24]), 310.8 µg/mL; in data set [1] (setting [25]), 265.5 µg/mL; in data set [1] (setting [26]), 257.9 µg/mL; in data set [2] (setting [23]), 336.3 µg/mL. The values for the Dissolved amount in data set [2] (setting [24]), in data set [2] (setting [25]) and in data set [2] (setting [26]) were 315.8 µg/mL, 268.2 µg/mL and 266.3 µg/mL, respectively.

Turning to `CC(C)NCC(O)COc1cccc2[nH]ccc12` (stereo not shown) [compound 42, Pindolol], the Dissolved amount in data set [1] (Pindolol, elution time 3 min) is 1394.9 µg/mL; in data set [1] (Pindolol, elution time 10 min) it was 2837.9 µg/mL; in data set [1] (Pindolol, elution time 30 min), 3212.1 µg/mL; in data set [1] (Pindolol, elution time 120 min) it was 3624.7 µg/mL; in data set [2] (Pindolol, elution time 3 min) it was 53.1 µg/mL; in data set [2] (Pindolol, elution time 10 min), 71.1 µg/mL. Besides, the Dissolved amount in data set [2] (Pindolol, elution time 30 min) turned out to be 77.8 µg/mL; in data set [2] (Pindolol, elution time 120 min), 93.5 µg/mL; in data set [2] (Pindolol, elution time 360 min), 93.6 µg/mL.
